{
  "source": "PubChem BioAssay AID1648",
  "about": "(Sanford-Burnham Center for Chemical Genomics, 2009)",
  "molecular_target": "Serine/threonine-protein kinase mTOR (Homo sapiens) (UniProt P42345)",
  "sequence (P42345 2015-2114)": "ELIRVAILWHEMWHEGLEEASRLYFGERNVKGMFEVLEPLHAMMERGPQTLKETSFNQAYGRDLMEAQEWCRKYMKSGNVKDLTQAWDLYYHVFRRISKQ",
  "experiment": "binders of mTOR FRB domain, biophysical, NMR (AID 1648)",
  "details": "NMR binding to FRB domain, chemical shift",
  "note": "Activity calls are given as the source filed them. The rule behind the calls is not given here.",
  "data": [
    {"smiles": "CN(C)CC(O)C1CCOC(C)(C)C1", "note": "(configuration not stated)", "values": [
      {"measurement": "Kd", "result": "> 4 mM (inactive)"}
    ]},
    {"smiles": "O=C(NN1C(=O)c2ccccc2C1=O)c1cccs1", "values": [
      {"measurement": "Kd", "result": "> 4 mM (inactive)"}
    ]},
    {"smiles": "[O-][n+]1onc2c1CCc1c-2nn(-c2ccccc2)[n+]1[O-]", "values": [
      {"measurement": "Kd", "result": "> 4 mM (inactive)"}
    ]},
    {"smiles": "COc1cc(C(=S)N2CCCC2)cc(Cl)c1O", "values": [
      {"measurement": "Kd", "result": "> 4 mM (inactive)"}
    ]},
    {"smiles": "Fc1ccc(N2CCNCC2)cc1", "values": [
      {"measurement": "Kd", "result": "> 4 mM (inactive)"}
    ]},
    {"smiles": "CCOC(=O)c1snnc1-c1ccccc1", "values": [
      {"measurement": "Kd", "result": "> 4 mM (inactive)"}
    ]},
    {"smiles": "CC1(C)C2CC[C@]3(C)C(C(=O)C=C4[C@@H]5C[C@@](C)(C(=O)O)CC[C@]5(C)CC[C@]43C)[C@@]2(C)CC[C@@H]1O", "note": "(some centres not stated)", "values": [
      {"measurement": "Kd", "result": "> 4 mM (inactive)"}
    ]},
    {"smiles": "S=c1nc2c(n[nH]1)[nH]c1ccccc12", "values": [
      {"measurement": "Kd", "result": "> 4 mM (inactive)"}
    ]},
    {"smiles": "Cc1ccccc1N1C(=O)CC(=O)NC1=O", "values": [
      {"measurement": "Kd", "result": "> 4 mM (inactive)"}
    ]},
    {"smiles": "NC(=O)CC1Sc2ccccc2NC1=O", "note": "(configuration not stated)", "values": [
      {"measurement": "Kd", "result": "> 4 mM (inactive)"}
    ]},
    {"smiles": "CC(=O)O[C@@H]1CC2C(C)(C)C=CC(=O)[C@]2(C)C2CC[C@@]3(C)[C@H](c4ccoc4)OC(=O)C4OC43[C@@]21C", "note": "(some centres not stated)", "values": [
      {"measurement": "Kd", "result": "> 4 mM (inactive)"}
    ]},
    {"smiles": "O=C(O)Cn1nnnc1-c1ccc(F)cc1", "values": [
      {"measurement": "Kd", "result": "> 4 mM (inactive)"}
    ]},
    {"smiles": "Nc1ncnc(NCc2cccnc2)c1[N+](=O)[O-]", "values": [
      {"measurement": "Kd", "result": "> 4 mM (inactive)"}
    ]},
    {"smiles": "CSc1ccc(/C=c2\\sc3ncnn3c2=O)cc1", "values": [
      {"measurement": "Kd", "result": "> 4 mM (inactive)"}
    ]},
    {"smiles": "CSc1nc(-c2ccco2)nn1S(C)(=O)=O", "values": [
      {"measurement": "Kd", "result": "> 4 mM (inactive)"}
    ]},
    {"smiles": "Cc1c(F)cccc1NS(=O)(=O)c1ccccc1C#N", "values": [
      {"measurement": "Kd", "result": "> 4 mM (inactive)"}
    ]},
    {"smiles": "COc1ccc2c(CC(=O)O)coc2c1", "values": [
      {"measurement": "Kd", "result": "> 4 mM (inactive)"}
    ]},
    {"smiles": "O=c1ccc2ccccc2o1", "values": [
      {"measurement": "Kd", "result": "> 4 mM (inactive)"}
    ]},
    {"smiles": "O=C1CC(c2ccccc2)n2ncnc2N1", "note": "(configuration not stated)", "values": [
      {"measurement": "Kd", "result": "> 4 mM (inactive)"}
    ]},
    {"smiles": "O=C(O)C1(O)C[C@@H](O)C(O)[C@H](O)C1", "note": "(some centres not stated)", "values": [
      {"measurement": "Kd", "result": "> 4 mM (inactive)"}
    ]},
    {"smiles": "Nc1ccnc(C(=O)O)c1", "values": [
      {"measurement": "Kd", "result": "> 4 mM (inactive)"}
    ]},
    {"smiles": "O=C(Nn1cnnc1)c1ccccc1-c1ccccc1", "values": [
      {"measurement": "Kd", "result": "> 4 mM (inactive)"}
    ]},
    {"smiles": "O=C1COc2ccc(C(=O)c3ccccc3)cc2CN1", "values": [
      {"measurement": "Kd", "result": "> 4 mM (inactive)"}
    ]},
    {"smiles": "CCN(CC)S(=O)(=O)c1cccc2nsnc12", "values": [
      {"measurement": "Kd", "result": "> 4 mM (inactive)"}
    ]},
    {"smiles": "Cn1c(=O)c2[nH]cnc2n(C)c1=O", "values": [
      {"measurement": "Kd", "result": "> 4 mM (inactive)"}
    ]},
    {"smiles": "Cc1cc(O)c2c(c1O)C(=O)c1c(O)cc(C)c(O)c1C2=O", "values": [
      {"measurement": "Kd", "result": "> 4 mM (inactive)"}
    ]},
    {"smiles": "CC(C(N)=O)N1C(=O)c2ccccc2C1=O", "note": "(configuration not stated)", "values": [
      {"measurement": "Kd", "result": "> 4 mM (inactive)"}
    ]},
    {"smiles": "CC(C)=NNC(=O)c1ccccc1", "values": [
      {"measurement": "Kd", "result": "> 4 mM (inactive)"}
    ]},
    {"smiles": "Cc1cc(C)cc(C(=O)N2CCC(C(N)=O)CC2)c1", "values": [
      {"measurement": "Kd", "result": "> 4 mM (inactive)"}
    ]},
    {"smiles": "N=c1n(N)c2ccccc2n1CCO", "values": [
      {"measurement": "Kd", "result": "> 4 mM (inactive)"}
    ]},
    {"smiles": "NCc1cccc2c1OCCCO2", "values": [
      {"measurement": "Kd", "result": "> 4 mM (inactive)"}
    ]},
    {"smiles": "Brc1ccc(-c2nc(-c3ccncc3)no2)o1", "values": [
      {"measurement": "Kd", "result": "> 4 mM (inactive)"}
    ]},
    {"smiles": "CN1CCN(C(=S)NC(=O)c2ccn(C)n2)CC1", "values": [
      {"measurement": "Kd", "result": "> 4 mM (inactive)"}
    ]},
    {"smiles": "NC(=O)Cc1nc2ccccc2[nH]1", "values": [
      {"measurement": "Kd", "result": "> 4 mM (inactive)"}
    ]},
    {"smiles": "Cc1occc1C(=O)Nc1nccs1", "values": [
      {"measurement": "Kd", "result": "> 4 mM (inactive)"}
    ]},
    {"smiles": "C=C(C)[C@@H]1[C@H]2OC(=O)[C@@H]1[C@]1(O)C[C@H]3O[C@]34C(=O)O[C@H]2[C@]14C", "values": [
      {"measurement": "Kd", "result": "> 4 mM (inactive)"}
    ]},
    {"smiles": "CC[C@H](/C=C/C(C)C1CCC2C3CCC4=CC(=O)CC[C@]4(C)C3CC[C@]12C)C(C)C", "note": "(some centres not stated)", "values": [
      {"measurement": "Kd", "result": "> 4 mM (inactive)"}
    ]},
    {"smiles": "Cc1cccc(C)c1N1C(=O)CCC1=O", "values": [
      {"measurement": "Kd", "result": "> 4 mM (inactive)"}
    ]},
    {"smiles": "COCCn1c(SC)nc2c1c(=O)[nH]c(=O)n2C", "values": [
      {"measurement": "Kd", "result": "> 4 mM (inactive)"}
    ]},
    {"smiles": "CCOC(=O)c1cc(C)[nH]n1", "values": [
      {"measurement": "Kd", "result": "> 4 mM (inactive)"}
    ]},
    {"smiles": "O=c1[nH]cc(NC(=S)N2CCOCC2)c(=O)[nH]1", "values": [
      {"measurement": "Kd", "result": "> 4 mM (inactive)"}
    ]},
    {"smiles": "CNC(=O)Oc1ccc2c(c1)[C@]1(C)CCN(C)[C@@H]1N2C", "values": [
      {"measurement": "Kd", "result": "> 4 mM (inactive)"}
    ]},
    {"smiles": "O=C(/C=C/C=C/c1ccc2c(c1)OCO2)N1CCCCC1", "values": [
      {"measurement": "Kd", "result": "> 4 mM (inactive)"}
    ]},
    {"smiles": "CN(C)C(=O)c1ccc(-c2n[nH]c(=O)c3ccccc23)cc1", "values": [
      {"measurement": "Kd", "result": "> 4 mM (inactive)"}
    ]},
    {"smiles": "CC(=O)Oc1ccc2c(c1C(C)C)CCC1C(C)(C)CCC[C@]21C", "note": "(some centres not stated)", "values": [
      {"measurement": "Kd", "result": "> 4 mM (inactive)"}
    ]},
    {"smiles": "Cc1cccc(N2C(=O)CC(=O)NC2=O)c1", "values": [
      {"measurement": "Kd", "result": "> 4 mM (inactive)"}
    ]},
    {"smiles": "OC12CC3CC(CC(C3)C1)C2", "values": [
      {"measurement": "Kd", "result": "> 4 mM (inactive)"}
    ]}
  ]
}
